How the values were obtained:
[1] = test system: tyrosine hydroxylase, phosphorylated tyrosine hydroxylase, dopamine transporter, IBA1, GFAP in striatum; test: Western immunoblot of dopaminergic and glial markers in striatal lysates; assay type: in vivo; conditions: rat low cohort, 6 mg/kg i.p. daily 7 weeks, vs vehicle
Procedure: Striatal tissue from successfully targeted low cohort rats was homogenized in ice-cold TriZOL lysed using the TissueLyser system. Homogenates were incubated with 20% chloroform and centrifuged at 13,523g for 15 min at 4°C. Protein pellets were washed in methanol twice and resuspended in 1% SDS and heated to 50°C. Total protein concentrations were measured using Pierce BCA Protein Assay Kit and equal amount of protein (10–20 µg) mixed with Laemmli sample buffer were loaded in 4–20% TGX precast gels (Biorad) for gel electrophoresis. Protein was transferred to a PVDF membrane (Biorad) using a Trans Blot Turbo Transfer System, the immunoblots were immediately fixed with 0.4% paraformaldehyde (PFA) for 30 min and stained for total protein using Revert 700 (Licor) for reliable normalization. Revert staining was captured and measured on the Licor Odyssey at 700 nm for 30 s.
Non-specific protein binding was blocked with 5% milk and 0.1% Tween-20 in TBS for 1 h at room temperature, and membranes incubated with primary antibodies overnight at 4°C. The blots were washed with 0.1%TBS-Tween-20, incubated with appropriate horseradish peroxidase-conjugated secondary antibodies (1:2000) at room temperature for 1 h and developed with SuperSignal West Femto Enhancer or Pico Peroxide solutions under a chemiluminescent detection imaging system (Licor Odyssey). The density of the band was quantified using StudioLite software. Relative expression levels were normalized to its own total protein and to vehicle average expression level.

[2] = test system: brain immune cells; test: Multicolor flow cytometry of brain immune cells (high cohort); assay type: in vivo, rat
Procedure: An additional cohort of rats (termed “high cohort”) was evaluated to determine effects of SMM-189 on immune cell populations in the brain, resident or infiltrating, and the periphery as measured by flow cytometry (Fig. 1). To ensure infiltrating peripheral immune cells, rats were stereotaxically injected with a higher titer of AAV2/5-human WT Asyn (4.6 × 10^12 vg/mL) and underwent an identical drug treatment timeline with animals sacrificed at 4 (SMM-189: n = 5; vehicle: n = 6) and 8 weeks (SMM-189: n = 7; vehicle: n = 7). At sacrifice, animals were deeply anesthetized with euthasol (i.p., 150 mg/kg) and rapid decapitation performed using a sharp guillotine. Brains were collected at endpoints, and brain immune cells isolated and evaluated using multicolor flow cytometry. Additionally, blood was collected at baseline, 4 and 8 weeks (SMM-189: n = 13; vehicle: n = 13) after stereotaxic surgery for PBMCs isolation to immunophenotype using flow cytometry and for plasma evaluation of SMM-189.
Brains were collected from animals in the high cohort at either 4 or 8 weeks after AAV2/5-human WT Asyn and brain immune cells were isolated from individual hemispheres as previously described. Hemispheres were finely cut in RPMI 1640 media (Gibco Cat#11875-093) with a scalpel blade and enzymatically dissociated with collagenase VIII (1.4U/mL; Sigma Cat#C2139) and DNAse1 (1 mg/mL; Sigma Cat#DN25) in 37°C for 15 min. Enzymes were neutralized with 10%FBS (heat inactivated, Atlanta Biologicals Cat#S11150) in RPMI 1640 complete media and centrifuged 400g at room temperature. Tissue was resuspended in 1x HBSS and mechanically dissociated using a fire-polished Pasteur pipette until a cell suspension was generated. The suspension was passed through a 70µM cell strainer and strainers rinsed twice with 1x HBSS. To remove myelin, the strained suspension was centrifuged at 300g at 4 °C for 5 min and resuspended in 37% percoll and layered between 70% and 30% percoll gradients. The samples were centrifuged at 400g for 30 min at room temperature with the brake disabled. The top myelin layer was aspirated and demyelinated immune cells were collected from the 37% and 70% percoll interface with a pipette and washed with 1x HBSS twice, resuspended in PBS and placed in a 96-well v-bottom plate for flow cytometry staining.
Peripheral and central immune cell staining was performed similarly as previously published protocols. In brief, immune cells were washed and resuspended in PBS, then incubated for 30 min at room temperature in LIVE/DEAD Fixable Red Dead cell stain (ThermoFisher Scientific Cat#L23102; 1:2000). Following two washes in PBS, Fc receptors were blocked with anti-rat CD32 Fc block diluted 1:100 in FACS buffer (1mM EDTA and 0.1% sodium azide in PBS) for 15 min at 4°C. PBMCs were stained for separate myeloid and lymphoid panels and brain immune cells stained with an antibody panel to identify microglia, monocytes and lymphocytes (Table S1-S3). Fluorophore conjugated antibodies diluted with FACS buffer were incubated at 4 °C for 20 min. Cells stained for surface myeloid markers were fixed in 1% PFA for 25 min and washed in FACS.
PBMCs stained with lymphoid panel were further probed intracellularly for transcriptional marker Foxp3 to label […] T cells. […] Then washed and resuspended in FACs buffer. All samples had 10uL of AccuCheck Counting beads (ThermoFisher Cat#PCB100) added to final suspension and cells were run on a LSRII Instrument (BD Biosciences, Franklin Lakes, NJ) with FACSDiva software (BD Biosciences). Results were analyzed using FlowJo 10.8.1 software and brain immune populations of monocytes (classical and non-classical), lymphocytes (CD4 + and CD8+) or microglia and PBMC populations defined by specific strategies (Figure S1-S3). […]

[3] = 4 weeks, high cohort, treatment effect vs vehicle
[4] = 8 weeks, high cohort, treatment effect
[5] = 8 weeks, high cohort, vs control
[6] = 8 weeks, high cohort, vs vehicle

O=C(c1ccccc1)c1cc(O)c(-c2cc(Cl)cc(Cl)c2)c(O)c1 [SMM-189]
myeloid marker IBA1 in striatum, western [1]: no differences | phosphorylated tyrosine hydroxylase in striatal lysates [1]: no significant changes | tyrosine hydroxylase in striatal lysates [1]: no significant changes | astrocyte marker GFAP expression levels in striatum, western ([1]; p = 0.0746): trend to decrease | dopamine transporter in striatal lysates ([1]; trend to increase p = 0.051): no significant changes | CD3+ lymphocytes parent population in brain ([2]; 4 weeks, high cohort): No CD3 + lymphocytes parent population differences | CD8 T cell frequencies in brain ([2]; 4 weeks, high cohort): not significantly different | MHCII MFI on microglia ([2]; 4 weeks, high cohort): no changes | classical or non-classical monocyte subset frequencies in brain ([2]; 4 weeks, high cohort): no treatment differences | frequency of microglia ([2]; 4 weeks, high cohort): no difference | frequencies of CD4+ T cells in brain ([2]; 4 weeks, high cohort, treatment effect): overall reduction | frequency of CD45hiCD11b myeloid/monocytes in brain [2, 3]: reduced | frequency of CD163+ macrophages in brain [2, 3]: reduced | MFI of CD11b on microglia ([2]; 4 weeks, unlesioned hemispheres, vs control): reduced | intensity of MHCII on microglia ([2]; 8 weeks, high cohort): no different | microglial MFI of CD11b [2, 4]: elevated | microglial MFI of CD172a [2, 4]: elevated | brain population frequency of lymphocytes (CD45+CD11b-) [2, 5]: did not affect | brain population frequency of macrophages (CD11b+CD163+) [2, 5]: did not affect | brain population frequency of microglia (CD45loCD11b+) [2, 5]: did not affect | brain population frequency of monocytes (CD45hiCD11b+) [2, 5]: did not affect | CD4+ lymphocytes in brain [2, 6]: increased | CD8+ lymphocytes in brain [2, 6]: decreased | frequency of MHCII+ classical (CD43-) monocytes in brain ([2]; 8 weeks, lesioned hemispheres, vs vehicle): elevated

Source: publication PMC11438102, “Modulation of cannabinoid receptor 2 alters neuroinflammation and reduces formation of alpha-synuclein aggregates in a rat model of nigral synucleinopathy” (Journal of Neuroinflammation, 2024)
